For the assay, the system named is mildew of wheat (Erysiphe [syn. Blumeria] graminis form a specialis tritici). Briefly: Activity against mildew of wheat, protective spray on potted wheat seedlings (cultivar Kanzler), greenhouse. It is filed as in vivo. Particulars: wheat leaves, 7 days after inoculation. As to the method: The active compounds, separately or together, were formulated as a 10% emulsion in a mixture of 63% by weight of cyclohexanone and 27% by weight of emulsifier, and diluted with water to the desired concentration.
Evaluation was carried out by determining the infected leaf areas in percent. These percentages were converted into efficacies. The efficacy (W) was calculated as follows using Abbot's formula:
[formula] • α corresponds to the fungal infection of the treated plants in % and • β corresponds to the fungal infection of the untreated (control) plants in %
An efficacy of 0 means that the infection level of the treated plants corresponds to that of the untreated control plants; an efficacy of 100 means that the treated plants were not infected.
The expected efficacies of the mixtures of the active compounds were determined using Colby's formula [R. S. Colby, Weeds 15, 20-22 (1967)] and compared with the observed efficacies.
Colby's formula: E=x+y−x·y/100 • E expected efficacy, expressed in % of the untreated control, when using the mixture of the active compounds A and B at the concentrations a and b • x efficacy, expressed in % of the untreated control, when using active compound A at a concentration of a • y efficacy, expressed in % of the untreated control, when using active compound B at a concentration of b.
Leaves of wheat seedlings of the cultivar “Kanzler” grown in pots were sprayed to run-off point with an aqueous suspension having the concentration of active compounds stated below. The suspension or emulsion was prepared from a stock solution made using 10% of active compound in a mixture comprising 70% of cyclohexanone, 20% of wetting agent and 10% of emulsifier. 24 hours after the spraycoating had dried on, the leaves dusted with spores of mildew of wheat (Erysiphe [syn. Blumeria] graminis form a specialis tritici). The test plants were then placed in a greenhouse at 20-24° C. and 60-90% relative atmospheric humidity.
After 7 days, the extent of the development of the mildew was determined visually in % infection of the entire leaf area.
The visually determined values for the percentage of diseased leaf area were converted into efficacies in % of the untreated control. An efficacy of 0 means the same disease level as in the untreated control, an efficacy of 100 means a disease level of 0%. The expected efficacies for the active compound combinations were determined using Colby's formula mentioned above and compared with the observed efficacies.

The mark [1] stands for this setting: 0.06 ppm active compound in the spray liquor.
Where [2] appears, read: 0.25 ppm active compound in the spray liquor.
Where [3] appears, read: 1 ppm active compound in the spray liquor.
Setting [4] is: 4 ppm active compound in the spray liquor.

Molecules are shown by their SMILES.

Take `OC(Cc1ccccc1Cl)(Cn1nc[nH]c1=S)C1(Cl)CC1` (stereo not drawn) [Compound I, 2-[2-(1-chlorocyclopropyl)-3-(2-chlorophenyl)-2-hydroxypropyl]-2,4-dihydro-[1,2,4]-triazole-3-thione]: the “Efficacy in % of the untreated control” value turned out to be 0% (0.015 ppm active compound in the spray liquor); 0% under setting [1]; 0% under setting [2]; 0% under setting [3]; 56% under setting [4].

For `Fc1ccc(C2(Cn3cncn3)OC2c2ccccc2Cl)cc1` (stereo not drawn) [Compound II, epoxiconazole], the “Efficacy in % of the untreated control” value reads like this: under setting [1], 11%; under setting [2], 33%; under setting [3], 44%.

Consider `CCCCC(C#N)(Cn1cncn1)c1ccc(Cl)cc1` (stereo not drawn) [Compound XIII, myclobutanil], for which the “Efficacy in % of the untreated control” value by setting is: under setting [1], 0%; under setting [3], 11%; under setting [4], 56%.

For `CC1(C)CCC(Cc2ccc(Cl)cc2)C1(O)Cn1cncn1` (stereo not drawn) [Compound III, metconazole], under setting [2], the “Efficacy in % of the untreated control” value was 11%.
